In US4226879A, “Antibiotic composition” (Kyowa Hakko Kogyo Kabushiki Kaisha, priority 1976, dated 1980):
Structures can show the parent of a compound that is named as a salt.

System: Eimeria tenella K-2
Assay: anticoccidial test in chicks (Example 4)
Details: for Caecal lession (numbers of chicks), ++: grade ++ (middle); for Caecal lession (numbers of chicks), +++: grade +++ (heavy)
[1] = 0.025 % in diet, groups of 10 chicks
[2] = 0.0125 % in diet, groups of 10 chicks
[3] = 0.0033 % in diet, groups of 10 chicks
[4] = 0.0066 % in diet, groups of 10 chicks

Compound	Survival ratio (0.0125 % in diet)	Survival ratio (0.025 % in diet)	Caecal lession (numbers of chicks), ++ [1]	Caecal lession (numbers of chicks), +++ [2]	Caecal lession (numbers of chicks), +++ [1]	Survival ratio (0.0033 % in diet)	Survival ratio (0.0066 % in diet)	Caecal lession (numbers of chicks), + (grade + (light), 0.0066 % in diet, groups of 10 chicks)	Caecal lession (numbers of chicks), ++ [3]	Caecal lession (numbers of chicks), ++ [4]	Caecal lession (numbers of chicks), +++ [3]	Caecal lession (numbers of chicks), +++ [4]
CCCc1ncc(C[n+]2ccccc2C)c(N)n1 [Amprolium hydrochloride, reference compound]	40%	70%	2 numbers of chicks	10 numbers of chicks	8 numbers of chicks							
Cc1nc(C)c(Cl)c(O)c1Cl [Clopidol, reference compound]	50%	70%	4 numbers of chicks	10 numbers of chicks	6 numbers of chicks							
N=C(N/N=C/c1ccc(Cl)cc1)N/N=C/c1ccc(Cl)cc1 [Robenidine hydrochloride, reference compound]						80%	100%	2 numbers of chicks	2 numbers of chicks	5 numbers of chicks	8 numbers of chicks	3 numbers of chicks
